# According to patent US7166618B2, “Nitrosated and nitrosylated cyclooxygenase-2 inhibitors, compositions and methods of use” (NitroMed, Inc., priority 1999, dated 2007):
# Tests used:
# [1] = system: carrageenan-induced rat paw edema; assay: Carrageenan-induced rat paw edema test; assay type: in vivo; conditions: rats dosed intragastrically, paw volume 3 hours after carrageenan
# Description: The carrageenan-induced rat paw edema test was used to measure antiinflammatory activity. The paw edema test was performed according to the method of Winter et al, Proc. Soc. Exp. Biol. Med. 111: 544–547, 1962. Male Sprague-Dawley rats (200–250 g) were fasted for 24 hours with water ad libitum. The rats were dosed intragastrically with test compounds in a volume of 5 mL/kg. One hour after dosing the paw volume was measured. Then each rat received a subplantar injection of 50 μl of 1% suspension of carrageenan. Three hours later, the paw volume was measured and compared with the initial volume measured […]. The increase in paw volume is presented as the mean±SEM for 5 rats per group. Data were analyzed by performing an ANOVA test followed by a Student-Keuls post hoc test.
# ovine COX-2 = molecular target: T1, ovine COX-2 (Ovis aries, UniProt P79208); assay: biochemical; assay type: biochemical
# T1 sequence (P79208 17-603): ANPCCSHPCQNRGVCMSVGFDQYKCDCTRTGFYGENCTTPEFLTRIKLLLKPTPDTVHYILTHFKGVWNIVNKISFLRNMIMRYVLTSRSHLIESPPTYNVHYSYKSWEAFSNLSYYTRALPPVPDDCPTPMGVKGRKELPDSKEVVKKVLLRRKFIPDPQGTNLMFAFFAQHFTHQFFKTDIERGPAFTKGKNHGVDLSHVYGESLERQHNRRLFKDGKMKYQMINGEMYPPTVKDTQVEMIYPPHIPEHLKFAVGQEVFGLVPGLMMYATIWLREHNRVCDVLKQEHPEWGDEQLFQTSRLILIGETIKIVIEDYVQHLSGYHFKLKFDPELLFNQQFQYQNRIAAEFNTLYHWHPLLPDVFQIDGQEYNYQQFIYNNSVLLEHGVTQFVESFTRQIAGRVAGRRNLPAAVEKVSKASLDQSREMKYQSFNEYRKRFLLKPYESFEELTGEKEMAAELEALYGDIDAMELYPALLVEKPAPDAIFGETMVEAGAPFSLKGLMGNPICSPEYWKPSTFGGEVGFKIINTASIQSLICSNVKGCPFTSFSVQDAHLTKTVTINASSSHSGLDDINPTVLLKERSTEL
# Description: (§1) The ovine COX-1 and COX-2 activities and the measurement of the prostaglandin products synthesized were performed using the COX Inhibitor Screening Assay (Cayman Chemical, Ann Arbor, Mich., which also contained the Prostaglandin Screening EIA Kit, used for prostaglandin quantification). The test compounds were dissolved at 50 times the highest final reaction concentration in DMSO or any other suitable solvent as stock solutions. These stock solutions were then diluted in the same solvent. Eight glass test tubes (13×100 mm) were placed in a 37° C. water bath. To each test tube was added 950 μL of reaction buffer (0.1 M Tris-HCl, pH 8.0, containing 5 mM EDTA, and 2 mM phenol), 10 μL of 100 µM heme solution, and 10 μL (5 units) of either ovine COX-1 or COX-2 and the resulting mixture was incubated with the enzyme for 2 minutes. Twenty μL of the solvent was added to one tube (100% initial activity or solvent control) and 20 μL of each dilution of the test compound was added to one tube each. Each tube was vortexed immediately after the addition. The enzyme was incubated with the inhibitor for 3.5 minutes at 37° C. The enzymatic reaction was then initiated by the addition of 10 μL of freshly prepared 10 mM arachidonic acid (neutralized with KOH), vortexed and then incubated for 2 minutes at 37° C. The reaction was terminated by the addition of 50 μL of 1 M HCl, vortexed and placed at room temperature. One hundred microliters of a saturated stannous chloride solution (50 mg/mL of 0.1 M HCl) was added and the reaction mixture was allowed to stand at room temperature for at least 5 minutes.
# (§2) The prostaglandins (PG) produced in the reactions were assayed, after a 2,000-fold dilution, using the Prostaglandin Screening EIA Kit (Cayman Chemical, Ann Arbor, Mich.). The assay-contains an antibody with broad specificity for all the prostaglandin families (PGF, PGE, PGD, and thromboxane B-type) synthesized in the COX-1/COX 2 reactions. The synthesized prostaglandin competes with a PG-tagged acetylcholine esterase tracer for binding to the PG antibody. Binding of synthesized PG lowers the calorimetric development of the Ellman's Reagent (computed as % B/B0). The actual amount of synthesized PG was interpolated from a standard curve using known amounts of supplied prostaglandin E2 (PGE2) (PGE2 concentration vs. % B/B0). The data generated were the mean±standard deviation of triplicate wells in the EIA for a single reaction at a given inhibitor concentration.
# ovine COX-1 = molecular target: T2, ovine COX-1 (Ovis aries, UniProt P05979); assay: biochemical
# T2 sequence (P05979 25-600): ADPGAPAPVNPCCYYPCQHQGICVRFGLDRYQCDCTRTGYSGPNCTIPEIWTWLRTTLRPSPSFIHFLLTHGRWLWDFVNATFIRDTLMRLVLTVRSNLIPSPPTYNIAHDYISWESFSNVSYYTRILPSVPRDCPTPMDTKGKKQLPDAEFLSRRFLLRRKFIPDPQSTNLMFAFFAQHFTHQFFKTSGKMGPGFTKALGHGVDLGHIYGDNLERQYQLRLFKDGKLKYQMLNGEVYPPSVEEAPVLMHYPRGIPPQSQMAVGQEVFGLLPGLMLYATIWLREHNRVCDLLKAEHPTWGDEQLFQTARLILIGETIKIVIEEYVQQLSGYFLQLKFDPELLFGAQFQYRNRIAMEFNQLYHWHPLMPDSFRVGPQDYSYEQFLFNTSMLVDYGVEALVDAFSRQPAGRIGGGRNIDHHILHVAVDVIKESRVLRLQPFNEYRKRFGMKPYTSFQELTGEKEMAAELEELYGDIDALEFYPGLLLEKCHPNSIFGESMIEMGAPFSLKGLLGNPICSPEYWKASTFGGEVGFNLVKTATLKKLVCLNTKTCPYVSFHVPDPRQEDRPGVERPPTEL
# Description: as §1, §2
smiles,measurement,setting,value
"NS(=O)(=O)c1ccc(-c2c(-c3ccccc3)noc2CO[N+](=O)[O-])cc1 [Example 2b, 4-(5-((Nitrooxy)methyl)-3-phenylisoxazol-4-yl)benzenesulfonamide]",paw volume (antiinflammatory activity),[1],reduced the paw volume
same,IC50,ovine COX-2,1200 nM
same,inhibition at 100 µM,"ovine COX-1; Ovine COX-1 (footnote a), at 100 μM",0%
same,IC50,ovine COX-1; ovine COX-1,> 300000 nM
